Measurements from US8828993B2, “Psychotropic agents having glutamate NMDA activity” (Ramot At Tel-Aviv University Ltd., priority 2006, dated 2014).
“Also recorded” adds a separate entry of the source. Counter-ions that a name gives are not always drawn.

How the values were obtained:
Assay type in all cases: in vivo
[1] = tested on: mice; assay: Elevated plus maze
From the text: The elevated plus maze is a widely used method to test anxiety in rodents (Pellow, et al., Pharmacol. Biochem. Behav., 24, 525-529 (1986)). The apparatus was made of wood and painted black, with two opposing open arms and two opposite enclosed arms of the same size. The arms were attached to a central square shaped in a plus sign. The whole apparatus was placed 50 cm above the floor. Anxious animals refrain from entering the open arm and prefer the closed arm.
In a typical experiment, Balb/c male mice were administered orally with 10 and 20 mg/kg of Compound 1 or Compound 6 and with a vehicle or with diazepam (1 mg/kg) administered per os (p.o.) 90 minutes before they were placed in the center of the maze. The frequency to the open aims, the time spent in the different arms, the velocity and number of rearings of the animals in each zone were recorded (Noldus).
Male Balb/c mice were used. Animals were transferred to the behavior room 24 hr before the experiment. Compound 1 or diazepam were administered orally 90 minutes before testing. Each treatment group included 5 animals.
Male Balb/c mice were used. Animals were transferred to the behavior room 24 hr before the experiment. Compound 6 (3, 9, or 27 mg/kg) or vehicle were administered orally 90 minutes before testing. Each treatment group included 5 animals.

[2] = tested on: mice; assay: Open field exploratory locomotor activity; conditions: for sedative effect: mice, i.p.
From the text: Open Field Exploratory Locomotor Activity
The procedure consists of subjecting an animal, usually a rodent, to an unknown large environment from which escape is prevented by surrounding walls. The open field test is now one of the most popular procedures in animal psychology (Crawley, et al., Exploratory behavior models of anxiety in mice, Neurosci Biobehav Rev 9 (1985), pp. 37-44). The procedure involves forced confrontation of a rodent with the situation. The animal is placed in the center or close to the walls of the apparatus and the following behavioral items are recorded for a period ranging from 5 to 20 minutes: horizontal locomotion, and frequency of rearing or leaning. In such a situation, rodents spontaneously prefer the periphery of the apparatus to activity in the central parts of the open field. Increase in time spent in the central part as well as of the ratio central/total locomotion or decrease of the latency to enter the central part are indications of anxiolysis.
In a typical test, an individual mouse was placed in a novel environment of a square open field (50×50 cm), the floor of which had been divided into 3 areas, as shown below. The area within 10 cm of the chamber walls was termed the periphery. […] One hour after drug administration, the animal was placed in the same corner of the field. The animal behavior in the open field was recorded by videotaping for 20-60 minutes and analyzed subsequently digitally using the Noldus software for animal behavior. The measurements included velocity, distance moved, frequency of visits to the central area, number of rearing events.
The effect of Compound 1 on the behavior of mice in the open field and the dose-dependent effect following i.p administration were evaluated. Naïve male Mice (Balb/c, Harlan Israel) were used. The animals, divided 3 to 5 animals per group, were administered with Compound 1 (12.5, 25, 50, 75 and 100 mg/kg) 1 hr prior to placing each in an open field. Mice were monitored for 1 hr (every 5 minutes) using the Noldus system, and their distance moved, velocity, time of immobility and number of rearings was recorded.
(§1) The effect of Compound 6 on the behavior of mice in the open field was also examined. Naïve male mice (Balb/c, Harlan Israel) were used. Animals (6 per group) were administered with Compound 6 (12.5, 25 and 50 mg/kg, i.p.) 1 hr prior to placing each in the open field. Mice were followed for 1 hr (every 5 minutes) using the Noldus system, and their distance moved, velocity, time of immobility and number of rearings was recorded.
The effect of oral administration of Compound 1 in the open field was tested by orally administering to male ICR mice varying amounts of Compound 1 (5, 10 and 20 mg/kg) or vehicle. Animals were placed in the open field 1 hr after drug administration and horizontal and vertical behavior was recorded for 20 minutes.
as §1, with “The dose-dependent” for “The”, “3 administered i.p.” for “6 on the behavior of mice”, “tested.” for “examined.”, “Animals” for “Animals (6 per group)”, “3” for “6”, “i.p., 6 per group)” for “i.p.)”
Animals were administered orally with Compound 1 (5, 10 and 20 mg/kg) or with a vehicle. Animals were placed in the open field 1 hr after drug administration and animal track was registered for 20 minutes. The time spent in the center (zone 3) and the frequency to the center were indicators of anxiety.

[3] = tested on: rats pretreated with MK-801; assay: Morris Water Maze in rats pretreated with MK-801; conditions: rats pretreated with MK-801 0.15 mg/kg i.p.
Protocol: (§2) The Morris Water Maze is a well known test aimed to assess spatial cognitive tasks (Anger, et al., Animal test systems to study behavioral dysfunctions of neurodegenerative disorders, Neurotoxicology, 12, 403-13 (1991)). The maze consists of a circular pool measuring 1.80 m in diameter 60 cm in height. The pool was filled with water (21±1° C.) to a depth of 30 cm. A circular hidden escape platform (10 cm in diameter) was placed just below the water surface. The test room contained several permanent extra maze cues such as the rat housing rack, laboratory table, posters on the walls, etc.
as §2, with “tasks.” for “tasks (Anger, et al., Animal test systems to study behavioral dysfunctions of neurodegenerative disorders, Neurotoxicology, 12, 403-13 (1991)).”
In the experiment rats were given Compound 1 orally on day 1 and the first test begun 90 minute later, six trials per day, for 3 consecutive days, to find the hidden platform (acquisition phase). The escape latency, i.e., the time required by the rat to find and climb onto the platform, was recorded for up to 120 sec. Each rat was allowed to remain on the platform for 30 sec, after which it was removed to its home cage.
A video camera was placed above the center of the pool for tracking the rat, and a video tracking system (Noldus) with online digital output directly fed data into a computer. Data were analyzed using EthoVision automated tracking system software (Noldus).
Compound 1 at both doses decreased the latency to the platform on day 3 of the experiment but not on days 1 and 2.
The relief of cognitive impairments was also shown in the use of Compound 6. […] Compound 6 at 10 mg/kg decreased the latency to the platform on days 2 and 3 of the experimentation.

[4] = Balb/c mice, 12.5, 25 and 50 mg/kg i.p.
[5] = male Balb/c mice, 20 mg/kg oral
[6] = male Balb/c mice, oral, diazepam 1 mg/kg
[7] = male ICR mice, oral 10 and 20 mg/kg, 1 hr after administration, 20 minutes

`CNC(CN1CCN(C2=Nc3ccccc3Nc3sc(C)cc32)CC1)C(=O)OC` (stereo not shown) [Compound 6, 2-N-methylamino-3-[4-(2-methyl-10H-thieno[2,3-b][1.5]benzodiazepin-4-yl)-piperazin-1-yl]propionic acid, methyl ester trihydrochloride salt] was tested, and the “time spent in the closed arm” value ([1]; male Balb/c mice, 3, 9 and 27 mg/kg orally) was “did not significantly affect”, the “time spent in the open arms” value ([1]; male Balb/c mice, 3, 9 and 27 mg/kg orally, 90 minutes before testing, trihydrochloride salt) was “more time; also recorded: dose-dependently increase” and the “time spent in the center” value ([1]; male Balb/c mice, 3, 9 and 27 mg/kg orally, trihydrochloride salt) was “less and decrease”. The “duration of “not moving” periods” value [2, 4] was “increased”, the “horizontal (distance) and vertical motility (number of rearings)” value [2, 4] was “inhibition” and the “motility (distance moved and velocity)” value ([2]; Balb/c mice, 12.5, 25 and 50 mg/kg i.p., 1 hr prior) was “dose dependent decrease”. The “effect on motility (distance moved and velocity)” value ([2]; Balb/c mice, up to 50 mg/kg i.p.) was “mild”, the sedative effect [2] was “mild sedative effect” and the “latency to the platform” value ([3]; 10 mg/kg p.o. once on day 1, days 2 and 3) was “decreased”.

In the case of `COC(=O)C(N)CN1CCN(C2=Nc3ccccc3Nc3sc(C)cc32)CC1` (stereo not shown) [Compound 1, 2-amino-3-[4-(2-methyl-10H-thieno[2,3-b][1,5]benzodiazepin-4-yl)-piperazin-1-yl]-propionic acid, methyl ester hydrochloride salt], the “anxiolytic activity (overall conclusion)” value ([1]; 20 mg/kg) is reported as “anxiolytic activity which resembles diazepam”, the “time spent in the center” value [1, 5] is reported as “increased” and the “time spent in the closed and the open arm” value [1, 5] is reported as “did not significantly affect”. For the same compound, the “frequency to the open arm and the center” value ([1]; male Balb/c mice, 20 mg/kg oral, 90 minutes before testing) was “frequented significantly more”, the “number of rearings in the open arm” value [1, 6] was “increased number of rearings” and the velocity [1, 6] was “not”. For the same compound, the “horizontal and vertical motility parameters” value ([2]; Balb/c mice, 12.5 mg/kg i.p.) was “did not modify significantly”, the rearing frequency ([2]; Balb/c mice, 12.5 mg/kg i.p.) was “tended to increase” and the “sedative effect / motility” value ([2]; Balb/c mice, doses higher than 50 mg/kg i.p.) was “marked sedative effect”. For the same compound, the “horizontal and vertical motility” value ([2]; Balb/c mice, doses up to 50 mg/kg i.p.) was “mild inhibition”, the “horizontal and vertical motility” value ([2]; Balb/c mice, i.p. 12.5, 25, 50, 75 and 100 mg/kg, 1 hr prior, monitored 1 hr) was “dose dependent decrease” and the “anxiety parameters (time spent in the center and frequency to the center)” value ([2]; male ICR mice, 20 mg/kg p.o., 1 hr before, 20 minutes) was “anxiolytic activity”. For the same compound, the “horizontal behavior (velocity and distance moved)” value [2, 7] was “slightly decreased”, the “vertical behavior (number of rearings)” value [2, 7] was “increased” and the sedative effect [2] was “mild sedative effect”. For the same compound, the “latency to the platform” value ([3]; 10 and 20 mg/kg p.o. on day 1, day 3) was “decreased”.
